# From patent US7195769B2, “Pharmaceutical compositions of anti-tubercular drugs and process for their preparation” (Panacea Biotec Limited, priority 2000, dated 2007)
# Test: pH dependence of rifampicin degradation in presence of isoniazid
# Type: physicochemical
# Excerpt: Thereafter, above pH 3 the degradation is minimal.
structure (smiles),measurement,setting,value
CO[C@H]1/C=C/O[C@@]2(C)Oc3c(C)c(O)c4c(O)c(c(/C=N/N5CCN(C)CC5)c(O)c4c3C2=O)NC(=O)/C(C)=C\C=C\[C@H](C)[C@H](O)[C@@H](C)[C@@H](O)[C@@H](C)[C@H](OC(C)=O)[C@@H]1C [rifampicin],degradation of rifampicin in presence of isoniazid,above pH 3,minimal
same,degradation of rifampicin in presence of isoniazid,pH around 1,minimum
same,degradation of rifampicin in presence of isoniazid,pH between 2 and 3,increases abruptly
